In US4840949A, “Oxadiazole-alkyl-purine derivatives useful as antitussive agents” (Chinoin Gyogyszer Es Vegyeszeti Termekek Gyara Rt., priority 1986, dated 1989):
Structures can show the parent of a compound that is named as a salt.

Columns and labels:
in vivo = settings: rat, ip
[1] = Coughing caused by mechanical stimulation of the trachea bifurcatio on rabbits narcotised by nembutal, i.v. administration; assay type: in vivo, rabbit
[2] = Alleviation of coughing caused by 15% citric acid spray on guinea pig, oral administration; assay type: in vivo; settings: for ED50: Cavia porcellus, po; for absolute strength of the antitussive effect, in words: Table I
Experimental: The aforesaid facts are supported by Table I wherein the ID50 mg/kg values of 3,7-dihydro-3-methyl-7-[(5-methyl-1,2,4-oxadiazole-3-yl)-methyl]-1H-purine-2,6-dione (the most simple representative of the compounds of the Formula I); two known 1,2,4-oxadiazole-type antitussive agents, codeine and dextromethorphane (morphine type reference compounds) in the alleviation of coughing caused by a 15% citric acid spray are disclosed. […] As test animal guinea pigs are used. (Method: Arzneimittel Forschung 1966, 617-621). Test compound No. 5 is 2-(3-methyl-xanthine-7-yl)-acetamidoxime (a starting material of the Formula II).
Alleviation of coughing caused by 15% citric acid spray on
guinea pig, the test compounds are administered orally
Antitussive effect of p.o. administered 3,7-dihydro-3-methyl-7-
[(5-methyl-1,2,4-oxadiazole-3-yl)-methyl]-lH--purine-2,6-dione
on coughing induced by 15% citric acid spray on guinea pig

[3] = 1 hour pre-treatment, 15% citric acid spray, read-out: Antitussive effect, measured 1 hour after oral administration ID50

## Cc1nc(Cn2cnc3c2c(=O)[nH]c(=O)n3C)no1 [Compound 1, 3,7-dihydro-3-methyl-7-[(5-methyl-1,2,4-oxadiazole-3-yl)-methyl]-1H-purine-2,6-dione]
In vivo
  LD50: 700 mg/kg
[1]; Oryctolagus cuniculus, iv, 2 min, rabbit, i.v., 2 minutes after administration, calculated according to Lichfield-Wilcoxon
  ED50: 2.24 mg/kg
[1]; rabbit, 0.5-8.0 mg/kg i.v.
  decrease of coughing caused by mechanical stimulation: decreases in dose-dependant manner
[1]; taking into consideration the I.O. toxicity data
  therapeutical index relative to reference compounds Nos. 4 and 6: ten times more favorable
[2]; [3]
  ED50: 8.5 mg/kg
[2]; pre-treatment time 2.0 h, read-out: ID50, pre-treatment time 2.0 h
  ED50: 14.4 mg/kg
[2]; pre-treatment time 4.0 h, read-out: ID50, pre-treatment time 4.0 h
  ED50: 13.8 mg/kg
[2]; pre-treatment time 8.0 h, read-out: ID50, pre-treatment time 8.0 h
  ED50: 32.6 mg/kg
[2]; read-out: ID50, pre-treatment time 0.5 h, p.o., pre-treatment time 0.5 h
  ED50: 7.5 mg/kg
[2]; p.o.
  absolute strength of the antitussive effect, in words: significantly higher than that of reference compounds Nos. 2-4 and 6
[2]; p.o., Table I/A
  duration of oral antitussive effect: very long-lasting

## Cc1nc(Cn2cnc3c2c(=O)n(C)c(=O)n3C)no1 [Compound 2, 3,7-dihydro-1,3-dimethyl-7-[(5-methyl-1,2,4-oxadiazole-3-yl)-methyl]-1H--purine-2,6-dione, reference compound]
[2]; [3]
  ED50: 111 mg/kg

## COc1ccc2c3c1O[C@H]1[C@@H](O)C=C[C@H]4[C@@H](C2)N(C)CC[C@@]341 [Compound 4, Codeine.HCl, reference compound]
In vivo
  LD50: 72.4 mg/kg
[1]; rabbit, i.v.
  antitussive effect relative to compound No. 1: the same or a somewhat lower antitussive effect

## Cn1c(=O)[nH]c(=O)c2c1ncn2CC(N)=NO [Compound 5, 2-(3-methyl-xanthine-7-yl)-acetamidoxime, reference compound]
[2]; 50 mg/kg p.o., 1 hour after administration
  Antitussive effect at 50 mg/kg: inactive
[2]; p.o.
  absolute strength of the antitussive effect, in words: practically negligible

## COc1ccc2c(c1)[C@]13CCCC[C@@H]1[C@H](C2)N(C)CC3 [Compound 6, Dextromethorphan, reference compound]
[1]; rabbit, i.v.
  antitussive effect relative to compound No. 1: the same or a somewhat lower antitussive effect
